Literature values as cited in patent US10983136B2 (DiaSorin S.p.A., priority 2013, dated 2021).

Key:
[1] = in circulation, under normal circumstances
[2] = molecular target: T1, vitamin D binding protein (DBP) (Homo sapiens, UniProt P02774); settings: association constant
T1 sequence (P02774 17-474): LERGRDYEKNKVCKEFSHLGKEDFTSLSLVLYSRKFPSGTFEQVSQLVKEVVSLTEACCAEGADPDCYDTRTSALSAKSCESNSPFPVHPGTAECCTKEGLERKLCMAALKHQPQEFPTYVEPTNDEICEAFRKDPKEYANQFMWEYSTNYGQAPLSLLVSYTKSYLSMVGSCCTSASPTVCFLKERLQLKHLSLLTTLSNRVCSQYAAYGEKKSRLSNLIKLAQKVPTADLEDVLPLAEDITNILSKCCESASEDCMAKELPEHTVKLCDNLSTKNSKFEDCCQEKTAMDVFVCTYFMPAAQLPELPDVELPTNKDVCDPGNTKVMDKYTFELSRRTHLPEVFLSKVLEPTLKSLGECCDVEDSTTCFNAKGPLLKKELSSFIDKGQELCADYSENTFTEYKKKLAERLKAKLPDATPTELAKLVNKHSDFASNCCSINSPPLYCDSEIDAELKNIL

[3] = molecular target: T1, vitamin D binding protein (DBP); settings: same pH value (above 6, preferably above 7)

free form [1] | greater affinity of DBP for 25(OH)D over 1,25(OH)2D [3] | Compound | Ka (affinity of DBP) [2]
approximately 0.4% |  | C=C1/C(=C\C=C2/CCC[C@]3(C)[C@@H]([C@H](C)CCCC(C)(C)O)CC[C@@H]23)C[C@@H](O)C[C@@H]1O [1,25(OH)2D, 1,25-dihydroxyvitamin D] | 
approximately 0.03% | about 1000 fold | C=C1CC[C@H](O)C/C1=C/C=C1\CCC[C@]2(C)[C@@H]([C@H](C)CCCC(C)(C)O)CC[C@@H]12 [25(OH)D, 25-hydroxyvitamin D] | 5e+08 M⁻¹
 |  | vitamin D | 4e+07 M⁻¹
